Experimental data published in ChEMBL document CHEMBL5252536, “Discovery of VU0467485/AZ13713945: An M4 PAM Evaluated as a Preclinical Candidate for the Treatment of Schizophrenia” (ACS Med Chem Lett, 2017).
Calls of active or inactive are those of the source. No cut-off for these calls is given here.

Assays:
[1] = Genotoxicity in Salmonella typhimurium TA98 by Ames test; format: toxicity; conditions: salmonella enterica subsp. enterica serovar typhimurium
Cytochrome P450 1A2 [2] = target: T1, Cytochrome P450 1A2 (Homo sapiens, UniProt P05177); experiment: Activation of CYP1A2 in human hepatocyte using phenacetin as substrate preincubated for 5 days followed by substrate addition and measured after 1 hr by LC-MS/MS analysis; format: ADME, cell-based
T1 sequence (P05177 whole entry): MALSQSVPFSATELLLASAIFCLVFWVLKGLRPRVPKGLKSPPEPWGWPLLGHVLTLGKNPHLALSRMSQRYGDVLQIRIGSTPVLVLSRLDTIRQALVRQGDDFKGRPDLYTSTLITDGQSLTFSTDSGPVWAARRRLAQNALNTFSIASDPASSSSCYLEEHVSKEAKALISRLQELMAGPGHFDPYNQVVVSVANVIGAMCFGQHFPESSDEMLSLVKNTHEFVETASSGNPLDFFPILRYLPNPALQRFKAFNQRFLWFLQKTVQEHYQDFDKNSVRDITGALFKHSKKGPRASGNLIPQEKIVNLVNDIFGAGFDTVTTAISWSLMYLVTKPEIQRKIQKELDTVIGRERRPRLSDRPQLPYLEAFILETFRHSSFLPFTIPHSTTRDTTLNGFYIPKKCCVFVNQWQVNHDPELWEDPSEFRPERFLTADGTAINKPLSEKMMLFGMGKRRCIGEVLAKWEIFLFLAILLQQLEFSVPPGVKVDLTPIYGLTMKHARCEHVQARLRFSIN

[3] = Ratio of drug concentration in Beagle dog brain to plasma at 3 mg/kg, po by LC-MS/MS analysis; format: ADME, organism-based, Canis lupus familiaris; conditions: read-out: BPR
Cytochrome P450 1A2 [4] = target: T1, Cytochrome P450 1A2; experiment: Inhibition of CYP1A2 in human liver microsomes using phenacetin as substrate incubated for 15 mins in presence of NADPH by LC/MS/MS analysis; format: ADME, Microsome
CYP2B6 = target: T2, CYP2B6 (Homo sapiens, UniProt P20813); experiment: Activation of CYP2B6 in human hepatocyte using bupropion as substrate preincubated for 5 days followed by substrate addition and measured after 1 hr by LC-MS/MS analysis relative to control; format: ADME, cell-based; conditions: hepatocytes, probe bupropion, time 121 hrs
T2 sequence (P20813 whole entry): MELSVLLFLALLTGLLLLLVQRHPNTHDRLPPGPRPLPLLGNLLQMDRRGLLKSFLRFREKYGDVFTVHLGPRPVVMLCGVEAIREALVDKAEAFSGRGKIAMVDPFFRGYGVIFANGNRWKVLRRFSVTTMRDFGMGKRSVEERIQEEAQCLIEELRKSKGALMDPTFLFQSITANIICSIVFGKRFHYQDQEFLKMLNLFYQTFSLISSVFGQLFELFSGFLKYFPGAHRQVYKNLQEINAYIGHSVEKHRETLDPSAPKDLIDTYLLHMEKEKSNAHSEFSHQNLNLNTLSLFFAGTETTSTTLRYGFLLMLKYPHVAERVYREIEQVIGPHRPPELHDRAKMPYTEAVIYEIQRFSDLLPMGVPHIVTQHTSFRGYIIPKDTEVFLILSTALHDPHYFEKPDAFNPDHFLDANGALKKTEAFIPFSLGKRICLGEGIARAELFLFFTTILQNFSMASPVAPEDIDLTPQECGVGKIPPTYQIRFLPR

[5] = Oral bioavailability in Sprague-Dawley rat at 3 mg/kg by LC-MS/MS analysis; format: ADME, organism-based; conditions: in vivo
[6] = Volume of distribution at steady state in Sprague-Dawley rat at 3 mg/kg,po or 1 mg/kg,iv by LC-MS/MS analysis; format: ADME, organism-based; conditions: in vivo
Cytochrome P450 2C9 = Cytochrome P450 2C9 (Homo sapiens, UniProt P11712); experiment: Inhibition of CYP2C9 in human liver microsomes using diclofenac as substrate incubated for 15 mins in presence of NADPH by LC/MS/MS analysis; format: ADME, Microsome
Cytochrome P450 2C9, sequence (P11712 whole entry): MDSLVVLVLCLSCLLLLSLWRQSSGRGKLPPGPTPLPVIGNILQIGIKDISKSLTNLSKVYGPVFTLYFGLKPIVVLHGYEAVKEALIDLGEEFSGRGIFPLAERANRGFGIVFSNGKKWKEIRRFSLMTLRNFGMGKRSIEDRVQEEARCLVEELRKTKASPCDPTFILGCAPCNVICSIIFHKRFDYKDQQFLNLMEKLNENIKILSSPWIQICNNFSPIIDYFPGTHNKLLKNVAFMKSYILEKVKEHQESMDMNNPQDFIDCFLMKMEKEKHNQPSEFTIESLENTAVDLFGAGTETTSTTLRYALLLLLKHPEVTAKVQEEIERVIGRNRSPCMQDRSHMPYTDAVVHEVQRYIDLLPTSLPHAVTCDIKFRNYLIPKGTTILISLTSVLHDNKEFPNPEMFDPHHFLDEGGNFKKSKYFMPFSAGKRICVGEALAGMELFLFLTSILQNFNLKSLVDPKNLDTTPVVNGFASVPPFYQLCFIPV

Cytochrome P450 2D6 = Cytochrome P450 2D6 (Homo sapiens, UniProt P10635); experiment: […] of human CYP2D6 mediated drug metabolism incubated for 5 mins followed by NADPH addition measured after 1 hr by LC-UV/MS analysis relative to control; format: ADME; conditions: recombinant enzyme, 1.083 h, time 65 min
Cytochrome P450 2D6, sequence (P10635 whole entry): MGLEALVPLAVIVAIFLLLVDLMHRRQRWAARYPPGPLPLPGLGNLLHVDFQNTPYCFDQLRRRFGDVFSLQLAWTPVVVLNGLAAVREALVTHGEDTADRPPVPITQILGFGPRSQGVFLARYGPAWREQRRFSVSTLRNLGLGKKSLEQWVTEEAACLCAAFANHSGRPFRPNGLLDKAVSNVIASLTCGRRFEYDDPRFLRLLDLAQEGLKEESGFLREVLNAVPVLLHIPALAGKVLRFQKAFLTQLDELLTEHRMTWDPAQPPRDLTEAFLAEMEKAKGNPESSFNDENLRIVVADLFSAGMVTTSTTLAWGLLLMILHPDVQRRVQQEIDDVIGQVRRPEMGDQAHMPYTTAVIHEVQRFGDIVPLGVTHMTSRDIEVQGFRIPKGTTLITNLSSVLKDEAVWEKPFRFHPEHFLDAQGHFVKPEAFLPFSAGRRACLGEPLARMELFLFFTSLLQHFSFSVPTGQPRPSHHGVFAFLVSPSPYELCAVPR

[7] = target: T3, Muscarinic acetylcholine receptor M4 (Homo sapiens) (UniProt P08173); experiment: Positive allosteric modulator activity at human M4 receptor expressed in CHO cells co-expressing Gqi5 in absence of EC20 concentration of acetylcholine by calcium mobilization assay; format: cell-based
T3 sequence (whole entry): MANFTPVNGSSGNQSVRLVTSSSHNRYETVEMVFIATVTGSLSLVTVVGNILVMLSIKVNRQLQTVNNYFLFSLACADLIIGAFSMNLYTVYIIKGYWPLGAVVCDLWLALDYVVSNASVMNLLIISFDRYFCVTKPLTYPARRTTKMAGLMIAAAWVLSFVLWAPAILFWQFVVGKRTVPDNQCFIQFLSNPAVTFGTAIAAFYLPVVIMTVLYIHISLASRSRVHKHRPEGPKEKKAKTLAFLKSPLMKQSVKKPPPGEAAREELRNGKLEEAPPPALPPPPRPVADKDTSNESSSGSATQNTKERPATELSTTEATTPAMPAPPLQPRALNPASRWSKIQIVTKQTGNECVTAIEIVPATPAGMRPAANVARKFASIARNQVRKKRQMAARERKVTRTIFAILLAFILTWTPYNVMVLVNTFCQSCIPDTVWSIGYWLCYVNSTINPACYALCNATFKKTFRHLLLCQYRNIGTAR

[8] = Elimination half life in Sprague-Dawley rat at 3 mg/kg,po or 1 mg/kg,iv by LC-MS/MS analysis; format: ADME, organism-based; conditions: in vivo, read-out: beta t1/2 (converted)
Cytochrome P450 3A4 [9] = target: T4, Cytochrome P450 3A4 (Homo sapiens, UniProt P08684); experiment: […] of human CYP3A4 mediated drug metabolism incubated for 5 mins followed by NADPH addition measured after 1 hr by LC-UV/MS analysis relative to control; format: ADME; conditions: recombinant enzyme, 1.083 h, time 65 min
T4 sequence (P08684 whole entry): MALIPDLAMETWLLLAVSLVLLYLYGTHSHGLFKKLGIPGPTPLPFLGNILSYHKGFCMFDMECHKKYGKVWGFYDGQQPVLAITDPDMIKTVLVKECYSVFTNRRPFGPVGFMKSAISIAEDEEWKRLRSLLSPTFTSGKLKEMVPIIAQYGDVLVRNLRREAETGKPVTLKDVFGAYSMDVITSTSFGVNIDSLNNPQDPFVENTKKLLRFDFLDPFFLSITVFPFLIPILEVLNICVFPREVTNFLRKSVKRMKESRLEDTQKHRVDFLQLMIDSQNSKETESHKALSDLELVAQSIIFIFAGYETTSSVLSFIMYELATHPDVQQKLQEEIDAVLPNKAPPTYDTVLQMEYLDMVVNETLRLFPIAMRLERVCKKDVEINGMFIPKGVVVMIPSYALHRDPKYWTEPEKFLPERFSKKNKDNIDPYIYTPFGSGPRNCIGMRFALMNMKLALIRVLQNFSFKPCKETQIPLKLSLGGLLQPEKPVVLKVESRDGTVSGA

Rattus norvegicus [10] = experiment: Antipsychotic activity in amphetamine-induced hyperlocomotion activity in rat assessed as minimum effective dose at 1 administered orally preincubated for 30 mins followed by amphetamine addition and measured after 60 mins by open field test; format: functional; conditions: 1.5 h, route po, time 90 min, read-out: MED
[11] = Positive allosteric modulator activity at dog M4 receptor expressed in CHO cells co-expressing Gqi5 in presence of EC20 concentration of acetylcholine by calcium mobilization assay; format: cell-based
Rattus norvegicus [12] = experiment: Antipsychotic activity in MK-801-induced hyperlocomotion activity in rat assessed as minimum effective dose administered orally preincubated for 30 mins followed by MK-801 addition and measured after 60 mins by open field test; format: functional; conditions: 1.5 h, route po, time 90 min, read-out: MED
[13] = Tmax in Sprague-Dawley rat at 3 mg/kg,po by LC-MS/MS analysis; format: ADME, organism-based; conditions: in vivo
Cytochrome P450 3A4 [14] = target: T4, Cytochrome P450 3A4; experiment: Inhibition of CYP34A in human liver microsomes using midazolam as substrate incubated for 15 mins in presence of NADPH by LC/MS/MS analysis; format: ADME, Microsome
CYP1A2 = target: T5, CYP1A2 (Homo sapiens, UniProt P05177); experiment: Activation of CYP1A2 in human hepatocyte using phenacetin as substrate preincubated for 5 days followed by substrate addition and measured after 1 hr by LC-MS/MS analysis relative to control; format: ADME, cell-based; conditions: hepatocytes, probe phenacetin, time 121 hrs
T5 sequence (P05177 whole entry): T1 sequence (P05177 whole entry)

EC50 (Cytochrome P450 1A2 [2]): > 50 µM
Kp [3]: 1
IC50 (Cytochrome P450 1A2 [4]): > 30 µM
Emax at 1 h (CYP2B6): ≤ 1%
bioavailability [5]: 79%
Vdss [6]: 1.5 L/kg
IC50 (Cytochrome P450 2C9): > 30 µM
Activity (Cytochrome P450 2D6): 0.2%
Activity [7]: inactive
half-life [8]: 4.2 h
Activity (Cytochrome P450 3A4 [9]): 43.7%
EC50 [11]: 0.087 µM
Tmax [13]: 1.5 h
IC50 (Cytochrome P450 3A4 [14]): > 30 µM
Emax at 1 h (CYP1A2): ≤ 1%
SMILES: COc1ccc(CNC(=O)c2sc3nnc(C)c(C)c3c2N)cc1F
Activity [1]: Non-Toxic
minimal effective dose (Rattus norvegicus [10]): 10 mg/kg
minimal effective dose (Rattus norvegicus [12]): 30 mg/kg
